Test results taken from PubChem BioAssay AID179 (DTP/NCI, 2004).
Calls of active or inactive are those of the source.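 The calls were made as follows: active = compounds giving half or more protection of infected cells from virus-caused growth loss, again on retest; inactive = the rest.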 Where a SMILES comes first, the peptide text is derived from it. The star is where a group is joined. Boc = CC(C)(C)OC(=O)*

Test system: CEM cells HIV-1 protection, formazan growth assay
Assay: NCI AIDS Antiviral Assay
Conditions: for IC50: measured here: growth of uninfected CEM cells
Procedure, shortened: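 Category rules: moderately active means at least 50% protection on retest, and confirmed active means 100% protection reproducibly. The underlying data came from a formazan growth assay in HIV-1-infected CEM cells.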

| SMILES | outcome | EC50 [µM] | IC50 [µM] |
| --- | --- | --- | --- |
| c1cnn(CN(Cn2cccn2)Cn2cccn2)c1 | inactive | – | – |
| O=c1oc2ccccc2cc1-n1nnc2cc([N+](=O)[O-])ccc21 | – | > 8.91 | > 8.91 |
| CN(C)CCOc1ccc(/C(=C(/CCCl)c2ccccc2)c2ccccc2)cc1 | – | > 43.7 | 0.38 |
| CCCCC/C(=N\c1nc[nH]c1C(N)=O)OCC | – | > 200 | > 200 |
| COC1=C(C)C(=O)c2nc(C)ccc2C1=O | inactive | – | – |
| Cc1cccc(C(C)C)c1NC(=O)C(=O)CC(=O)c1sc(Nc2ccccc2Cl)nc1C | – | > 200 | > 200 |
| O=C(/C=C\c1ccc(Cl)c(Cl)c1)c1ccccc1 | – | > 200 | 10 |
| CC(=O)N(c1ccccc1)[Si](C)(C)C | inactive | – | – |
| COCN1C(=O)C2CC(/C=C/C(N)=O)=CN2C(=O)c2ccccc21 (centres undefined) | inactive | – | – |
| S=C(Nc1ccc(Br)cn1)NC12CC3CC(CC(C3)C1)C2 | – | > 200 | 69.2 |
| COc1cnnc2ccccc12 | – | > 676 | 603 |
| C=C1C(=O)OC2C1C(OC(=O)/C(=C/C)COC(C)=O)CC1(CO1)C1C(OC(=O)/C(=C/C)CO)C=C(C)C21 (centres undefined) | inactive | – | – |
| COc1ccc(NC2CC(C)N(C(=O)c3ccccc3)O2)cc1 (centres undefined) | – | > 200 | 95.5 |
| OC1c2cccn2-c2cc(Cl)ccc2SC1c1ccccc1 (centres undefined) | – | > 70.8 | 4.47 |
| CCOC(=O)N1N=C(/C(C)=N/OC)C(C)S1=O (centres undefined) | – | > 200 | 148 |
| CCOC(=O)C1=C(Nc2ccc(Cl)cc2Cl)OC/C1=N\NS(=O)(=O)c1ccc(C)cc1 | – | > 28.2 | > 28.2 |
| O=C1CC(CC(=O)c2ccc(Br)cc2)C(=O)/C1=C(/O)c1ccc(Br)cc1 (centres undefined) | – | > 200 | 41.7 |
| CSc1nc(SC)c2ncn(C3CC(Oc4ccc(C)cc4)C(COc4ccc(C)cc4)O3)c2n1 (centres undefined) | – | > 100 | 66.1 |
| CN1C(=O)CN=C(c2ccc[nH]2)c2cc(Cl)ccc21 (tested in a mixture with another compound) | – | 11.2 | 79.4 |
| CCOC(=O)CNC(=O)Sc1ccccc1C(=O)N[C@@H](C)C(N)=O | – | 1.82 | 97.7 |
| O=C(CCN1CCOCC1)c1ccc(Oc2ccc(F)cc2)cc1 | inactive | – | – |

| SMILES | outcome | EC50 [µM] | IC50 [µM] |
| --- | --- | --- | --- |
| CC(c1ccccc1)[P+](c1ccccc1)(c1ccccc1)c1ccccc1 (centres undefined) | – | > 200 | 1.32 |
| O=[N+]([O-])c1ccc(NN=C(c2ccccc2)c2ccccc2)c([N+](=O)[O-])c1 | – | > 52.5 | > 52.5 |
| Oc1[nH]c(=S)[nH]c1/C=C1/C(c2ccccc2)=Nc2ccccc21 | – | > 200 | 9.33 |
| S=C1N=C(Cl)C2(NN1)c1ccccc1-c1ccccc12 | – | > 200 | > 200 |
| CN(CCN1C(=O)c2cccc3cccc(c23)C1=O)CCN1C(=O)c2cccc3cccc(c23)C1=O | – | > 26.3 | 9.12 |
| Nc1c(C(=O)O)nnc2cc(Cl)c(Cl)cc12 | – | > 200 | > 200 |
| N#C/C(=C\c1cc(O)c(O)c(Br)c1)C(=O)NCCCNC(=O)/C(C#N)=C/c1cc(O)c(O)c(Br)c1 | – | > 200 | 112 |
| COC(=O)Nc1cn2nc(C)sc2n1 | – | > 200 | > 200 |
| COC(=O)c1cc(=O)nc(NN)s1 | – | > 50.1 | > 50.1 |
| CC1CN=C(N(C)C(=O)Nc2ccc(Cl)cc2)S1 (centres undefined) | inactive | – | – |
| CCOP(=O)(OCC)/C(C#N)=C/c1cccc(C)c1 | – | > 339 | > 339 |
| C[P+]1(c2ccccc2)CCC(N)=C(C#N)C1 (centres undefined) | – | > 1070 | > 1070 |
| O=CC(O)C(O)C(O)C(O)COC(=O)NCCCCC(=O)C(F)(F)C(F)(F)C(F)(F)C(F)(F)C(F)(F)C(F)(F)C(F)(F)F (centres undefined) | – | > 200 | 24 |
| NC(=O)c1csc(C2(O)COC(CO)C2O)n1 (centres undefined) | – | > 200 | > 200 |
| O=C1NC2c3c(I)sc(I)c3/C(=N\O)C2O1 (centres undefined) | – | > 200 | 16.2 |
| C=CCOc1ccc(/C(N=Nc2ccc([N+](=O)[O-])cc2)=N/NC(=O)c2ccccc2)cc1OC | – | > 200 | 178 |
| C=C1c2nc3ccccc3n2C=C(c2ccc(Cl)cc2)N1c1ccccc1 | – | > 200 | 95.5 |
| CCOC12OC3=C(CC1CC1=C(CCC1=O)O2)C(=O)CC3 (centres undefined) | inactive | – | – |
| O=C(c1ccc(Cl)cc1)N(C(=S)N1CCN(c2ccccn2)CC1)C1CCCCC1 | – | > 11.7 | 8.51 |
| C[C@@H]1OC2(O)[C@H]3CCCN3S(=O)(=O)CCN2C1=O (some centres undefined) | – | > 912 | > 912 |
| Nc1o[nH]c(=O)c1-c1ccccc1 | – | > 200 | > 200 |

| SMILES | outcome | EC50 [µM] | IC50 [µM] |
| --- | --- | --- | --- |
| CN(C)CC(/C(Cc1ccccc1)=N\NC(=S)NN)c1ccccc1 (centres undefined) | – | > 35.5 | > 35.5 |
| Cc1csc2c(=O)n(C3OC(CO)C(O)C3O)c(=O)[nH]c12 (centres undefined) | – | > 200 | > 200 |
| C/C(=C\C(=O)OCCCCCCCC(=O)Nc1c2sscc-2[nH]c1=O)C(O)[C@@H]1OCC(C/C=C/[C@@H](C)[C@H](C)O)[C@@H](O)[C@H]1O (some centres undefined) | – | > 200 | 3.16 |
| O=C(O)CSc1n[nH]c(/C=C/c2ccccc2)n1 | – | > 955 | > 955 |
| COc1cc2cc(C(=O)N3CC(CCl)c4ccc(N)cc43)[nH]c2c(OC)c1OC (centres undefined) | – | > 1.51 | 0.295 |
| COc1cc(C2c3cc4c(cc3OC(N3CCOCC3)C2C)OCO4)cc(OC)c1OC (centres undefined) | – | > 200 | 1.86 |
| CC1(C)O[C@@H](CC/C=C/CO)[C@H](CC/C=C/CO)O1 | inactive | – | – |
| CCC(Cc1ccccc1)C1=NC(C)(C)CC(C)O1 (centres undefined) | – | > 200 | 79.4 |
| COc1cc(O)c2c(c1)O[C@H](C)C(C)C2=O (some centres undefined) | – | > 200 | > 200 |
| CCOP(=O)(OCC)/C(=C\n1ccc(=O)[nH]c1=S)C(=O)OC | – | > 200 | > 200 |
| O=C1CN=C(c2ccccn2)c2cc(Cl)ccc2N1 | – | > 479 | 72.4 |
| CC(C)OC(=O)c1ccc(NCc2cc(O)ccc2O)cc1 | – | > 200 | 2.19 |
| O=S1(=O)CC2C3CC(Oc4ccccc4)C(C3)C2C1 (centres undefined) | – | > 107 | > 107 |
| COc1cc2c(cc1O)C1Cc3cc(OC)c(OC)cc3C(C2)N1C (centres undefined) | – | > 39.8 | > 39.8 |
| CC(C)(C)c1cc(C(=O)[O-])c([OH2+])c(C(C)(C)C)c1.CC(C)(C)c1cc(C(=O)[O-])c([OH2+])c(C(C)(C)C)c1.[Mn+2] | – | > 85.1 | 33.9 |
| COC(=O)C(Cc1c[nH]c2ccccc12)NC(=O)C(Cc1c[nH]c2ccccc12)NC(=O)C(Cc1c[nH]c2ccccc12)NC(=O)C(Cc1c[nH]c2ccccc12)NC(=O)C(Cc1c[nH]c2ccccc12)NC(=O)C(Cc1c[nH]c2ccccc12)NC(=O)OC(C)(C)C (centres undefined) (Boc-WWWWWW-OMe; configuration not given here) | – | > 100 | 60.3 |
| O=c1sc2ncccc2n1-c1ccc([N+](=O)[O-])cn1 | – | > 91.2 | > 91.2 |
| COc1cc(N=Nc2ccc(C(=O)N(C)C)cc2)c(C)cc1N=Nc1c(O)c2ccccc2[nH]c1=O | – | > 200 | > 200 |
| O=C(c1ccco1)N(C(=S)N1CCN(c2ccccc2)CC1)c1ccccc1 | – | > 18.2 | > 18.2 |
| CCC(C)C(NC(=O)C(N)CCCCN)C(=O)NC(CCC(=O)O)C(=O)NC(CO)C(=O)NC(C(=O)O)C(C)O (centres undefined) (H-KIEST-OH; configuration not given here) | inactive | – | – |
